# Several values for one entry are separate records, joined by “and”; a condition that tells them apart may be missing. Equal values may be shown once. Read-outs that look alike come from different tables or passages of the source.
# Assays:
# [1] = tested on: HIV-1 strains (SKI, RF, DV, IIIB, ADP/141); assay: microbe, parasite or virus in culture; assay type: cell-based; conditions: for IC90: read-out: IC90 (cpe assay)
substance,measurement,setting,value
"5′-gtggtgggtgggtgggt-3′ [T30177] (GTGGTGGGTGGGTGGGT; phosphorothioate termini, further chemistry not given here)",increase in IC50 when MOI of HIV-1RF changed from 0.01 to 1.28,[1]; CEM-SS,14 fold
same,IC50,"[1]; HIV-1 DV, SUP T1, read-out: IC50 virus production",0.06 ± 0.004 µM
same,IC50,"[1]; HIV-1 IIIB, AA5, read-out: IC50 virus production",< 0.32 µM
same,IC50,"[1]; HIV-1 IIIB, CEM-SS or MT4, read-out: Antiviral Assay IC50 IIIB",2.83 µM
same,IC50,"[1]; HIV-1 IIIB, CEM-SS, read-out: IC50 virus production",2.8 µM and 2.83 µM
same,IC50,"[1]; HIV-1 IIIB, MT2, read-out: IC50 virus production",1.94 ± 0.12 µM
same,IC50,"[1]; HIV-1 IIIB, MT4, read-out: IC50 virus production",0.15 ± 0.02 µM
same,TI (therapeutic index),[1]; HIV-1RF in MT2 cells,226
same,IC50,"[1]; HIV-1 RF, CEM-SS or MT4, read-out: Antiviral Assay IC50 RF",0.075 µM
same,IC50,"[1]; HIV-1 RF, CEM-SS, MOI 0.01, read-out: IC50 virus production",0.075 µM
same,IC50,"[1]; HIV-1 RF, MT4, read-out: IC50 virus production",0.037 ± 0.03 µM
same,TI (therapeutic index),[1]; HIV-1SKI in CEM-SS cells,3680
same,IC50,"[1]; HIV-1 SKI, CEM-SS or MT4, read-out: Antiviral Assay IC50 SKI",0.025 µM
same,IC50,"[1]; HIV-1 SKI, CEM-SS, MOI 0.01, read-out: IC50 virus production",0.025 ± 0.006 µM
same,IC50,"[1]; HIV-1 SKI, MT2, read-out: IC50 virus production",0.06 ± 0.001 µM
same,IC50,"[1]; IIIB (MT4), MOI 0.01, read-out: IC50 (cpe assay)",2.7 µM
same,IC90,"[1]; IIIB (MT4), MOI 0.01",9.2 µM
same,IC50,"[1]; IIIB (MT4), MOI 0.02, read-out: IC50 (cpe assay)",3.1 µM
same,IC90,"[1]; IIIB (MT4), MOI 0.02",6.6 µM
same,IC50,"[1]; IIIB (MT4), MOI 0.3, read-out: IC50 (cpe assay)",3.38 µM
same,IC90,"[1]; IIIB (MT4), MOI 0.3",7 µM
same,IC50,"[1]; IIIB (MT4), MOI 1, read-out: IC50 (cpe assay)",6.8 µM
same,IC90,"[1]; IIIB (MT4), MOI 1",26 µM
same,IC50,"[1]; RF (CEM-SS), MOI 0.01, read-out: IC50 (cpe assay)",0.2 µM
same,IC90,"[1]; RF (CEM-SS), MOI 0.01",0.5 µM
same,IC50,"[1]; RF (CEM-SS), MOI 0.02, read-out: IC50 (cpe assay)",0.41 µM
same,IC90,"[1]; RF (CEM-SS), MOI 0.02",1.5 µM
same,IC90,"[1]; RF (CEM-SS), MOI 0.04",1.56 µM
same,IC50,"[1]; RF (CEM-SS), MOI 0.08, read-out: IC50 (cpe assay)",0.7 µM
same,IC90,"[1]; RF (CEM-SS), MOI 0.08",1.56 µM
same,IC50,"[1]; RF (CEM-SS), MOI 0.16, read-out: IC50 (cpe assay)",0.87 µM
same,IC90,"[1]; RF (CEM-SS), MOI 0.16",1.6 µM
same,IC50,"[1]; RF (CEM-SS), MOI 0.32, read-out: IC50 (cpe assay)",1.25 µM
same,IC90,"[1]; RF (CEM-SS), MOI 0.32",4.7 µM
same,IC50,"[1]; RF (CEM-SS), MOI 0.64, read-out: IC50 (cpe assay)",2.64 µM
same,IC90,"[1]; RF (CEM-SS), MOI 0.64",4.75 µM
same,IC50,"[1]; RF (CEM-SS), MOI 1.28, read-out: IC50 (cpe assay)",2.81 µM
same,IC90,"[1]; RF (CEM-SS), MOI 1.28",4.77 µM
same,IC50,"[1]; anti-HIV-1 virus production, read-out: Cell Culture IC50",0.075 µM
same,% CD4,"HIV-1 infected PBMCs; IIIB, drug 0.1 μM, day 7",1%
same,% CD8,"HIV-1 infected PBMCs; IIIB, drug 0.1 μM, day 7",98%
same,CD4/CD8 Ratio,"HIV-1 infected PBMCs; IIIB, drug 0.1 μM, day 7",0.01
same,% CD4,"HIV-1 infected PBMCs; IIIB, drug 1.0 μM",18%
same,% CD8,"HIV-1 infected PBMCs; IIIB, drug 1.0 μM",85%
same,CD4/CD8 Ratio,"HIV-1 infected PBMCs; IIIB, drug 1.0 μM",0.21
same,% CD4,"HIV-1 infected PBMCs; IIIB, drug 5.0 μM",27%
same,% CD8,"HIV-1 infected PBMCs; IIIB, drug 5.0 μM",83%
same,CD4/CD8 Ratio,"HIV-1 infected PBMCs; IIIB, drug 5.0 μM",0.33
same,% CD4,"HIV-1 infected PBMCs; IIIB, drug 10.0 μM",27%
same,% CD8,"HIV-1 infected PBMCs; IIIB, drug 10.0 μM",83%
same,CD4/CD8 Ratio,"HIV-1 infected PBMCs; IIIB, drug 10.0 μM",0.33
same,% CD4,"HIV-1 infected PBMCs; MN, drug 0.1 μM",5%
same,% CD8,"HIV-1 infected PBMCs; MN, drug 0.1 μM",95%
same,CD4/CD8 Ratio,"HIV-1 infected PBMCs; MN, drug 0.1 μM",0.05
same,% CD4,"HIV-1 infected PBMCs; MN, drug 1.0 μM",18%
same,% CD8,"HIV-1 infected PBMCs; MN, drug 1.0 μM",86%
same,CD4/CD8 Ratio,"HIV-1 infected PBMCs; MN, drug 1.0 μM",0.21
same,% CD4,"HIV-1 infected PBMCs; MN, drug 5.0 μM",25%
same,% CD8,"HIV-1 infected PBMCs; MN, drug 5.0 μM",81%
same,CD4/CD8 Ratio,"HIV-1 infected PBMCs; MN, drug 5.0 μM",0.31
same,% CD4,"HIV-1 infected PBMCs; MN, drug 10.0 μM",26%
same,% CD8,"HIV-1 infected PBMCs; MN, drug 10.0 μM",80%
same,CD4/CD8 Ratio,"HIV-1 infected PBMCs; MN, drug 10.0 μM",0.33
same,% CD4,"HIV-1 infected PBMCs; N. Amer. #1, drug 0.1 μM",21%
same,% CD8,"HIV-1 infected PBMCs; N. Amer. #1, drug 0.1 μM",84%
same,CD4/CD8 Ratio,"HIV-1 infected PBMCs; N. Amer. #1, drug 0.1 μM",0.25
same,% CD4,"HIV-1 infected PBMCs; N. Amer. #1, drug 1.0 μM",26%
same,% CD8,"HIV-1 infected PBMCs; N. Amer. #1, drug 1.0 μM",80%
same,CD4/CD8 Ratio,"HIV-1 infected PBMCs; N. Amer. #1, drug 1.0 μM",0.33
same,% CD4,"HIV-1 infected PBMCs; N. Amer. #1, drug 5.0 μM",27%
same,% CD8,"HIV-1 infected PBMCs; N. Amer. #1, drug 5.0 μM",81%
same,CD4/CD8 Ratio,"HIV-1 infected PBMCs; N. Amer. #1, drug 5.0 μM",0.33
same,% CD4,"HIV-1 infected PBMCs; N. Amer. #1, drug 10.0 μM",29%
same,% CD8,"HIV-1 infected PBMCs; N. Amer. #1, drug 10.0 μM",81%
same,CD4/CD8 Ratio,"HIV-1 infected PBMCs; N. Amer. #1, drug 10.0 μM",0.36
same,% CD4,"HIV-1 infected PBMCs; N. Amer. #2, drug 0.1 μM",4%
same,% CD8,"HIV-1 infected PBMCs; N. Amer. #2, drug 0.1 μM",98%
same,CD4/CD8 Ratio,"HIV-1 infected PBMCs; N. Amer. #2, drug 0.1 μM",0.04
same,% CD4,"HIV-1 infected PBMCs; N. Amer. #2, drug 1.0 μM",5%
same,% CD8,"HIV-1 infected PBMCs; N. Amer. #2, drug 1.0 μM",95%
same,CD4/CD8 Ratio,"HIV-1 infected PBMCs; N. Amer. #2, drug 1.0 μM",0.05
same,% CD4,"HIV-1 infected PBMCs; N. Amer. #2, drug 5.0 μM",28%
same,% CD8,"HIV-1 infected PBMCs; N. Amer. #2, drug 5.0 μM",82%
same,CD4/CD8 Ratio,"HIV-1 infected PBMCs; N. Amer. #2, drug 5.0 μM",0.34
same,% CD4,"HIV-1 infected PBMCs; N. Amer. #2, drug 10.0 μM",27%
same,% CD8,"HIV-1 infected PBMCs; N. Amer. #2, drug 10.0 μM",84%
same,CD4/CD8 Ratio,"HIV-1 infected PBMCs; N. Amer. #2, drug 10.0 μM",0.32
same,% CD4,"HIV-1 infected PBMCs; RF, drug 0.1 μM",10%
same,% CD8,"HIV-1 infected PBMCs; RF, drug 0.1 μM",92%
same,CD4/CD8 Ratio,"HIV-1 infected PBMCs; RF, drug 0.1 μM",0.11
same,% CD4,"HIV-1 infected PBMCs; RF, drug 1.0 μM",26%
same,% CD8,"HIV-1 infected PBMCs; RF, drug 1.0 μM",82%
same,CD4/CD8 Ratio,"HIV-1 infected PBMCs; RF, drug 1.0 μM",0.32
same,% CD4,"HIV-1 infected PBMCs; RF, drug 5.0 μM",31%
same,% CD8,"HIV-1 infected PBMCs; RF, drug 5.0 μM",83%
same,CD4/CD8 Ratio,"HIV-1 infected PBMCs; RF, drug 5.0 μM",0.37
same,% CD4,"HIV-1 infected PBMCs; RF, drug 10.0 μM",29%
same,% CD8,"HIV-1 infected PBMCs; RF, drug 10.0 μM",85%
same,CD4/CD8 Ratio,"HIV-1 infected PBMCs; RF, drug 10.0 μM",0.34
same,% CD4,"HIV-1 infected PBMCs; SE Asia isolate, drug 0.1 μM",2%
same,% CD8,"HIV-1 infected PBMCs; SE Asia isolate, drug 0.1 μM",99%
same,CD4/CD8 Ratio,"HIV-1 infected PBMCs; SE Asia isolate, drug 0.1 μM",0.02
same,% CD4,"HIV-1 infected PBMCs; SE Asia isolate, drug 1.0 μM",12%
same,% CD8,"HIV-1 infected PBMCs; SE Asia isolate, drug 1.0 μM",90%
same,CD4/CD8 Ratio,"HIV-1 infected PBMCs; SE Asia isolate, drug 1.0 μM",0.13
same,% CD4,"HIV-1 infected PBMCs; SE Asia isolate, drug 5.0 μM",29%
same,% CD8,"HIV-1 infected PBMCs; SE Asia isolate, drug 5.0 μM",82%
same,CD4/CD8 Ratio,"HIV-1 infected PBMCs; SE Asia isolate, drug 5.0 μM",0.35
same,% CD4,"HIV-1 infected PBMCs; SE Asia isolate, drug 10.0 μM",29%
same,% CD8,"HIV-1 infected PBMCs; SE Asia isolate, drug 10.0 μM",82%
same,CD4/CD8 Ratio,"HIV-1 infected PBMCs; SE Asia isolate, drug 10.0 μM",0.35
